In publication PMC7026418, “The kinase polypharmacology landscape of clinical PARP inhibitors” (Scientific Reports, 2020):
Read-outs that look alike come from different tables or passages of the source.

Tests used:
Assay in all cases: biochemical
Parameters in all cases: DiscoveRx KINOMEscan active site-directed competition binding; percent of control kinase bound to immobilised ligand
[1] = target: PIK3CA(E542K) (Homo sapiens, UniProt P42336, E542K)
[2] = target: MKNK1 (Homo sapiens, UniProt Q9BUB5)
[3] = target: SRC (Homo sapiens, UniProt P12931)
[4] = target: MAP4K5 (Homo sapiens, UniProt Q9Y4K4)
[5] = target: T1, NEK9 (Homo sapiens, UniProt Q8TD19)
T1 sequence (Q8TD19 1-979): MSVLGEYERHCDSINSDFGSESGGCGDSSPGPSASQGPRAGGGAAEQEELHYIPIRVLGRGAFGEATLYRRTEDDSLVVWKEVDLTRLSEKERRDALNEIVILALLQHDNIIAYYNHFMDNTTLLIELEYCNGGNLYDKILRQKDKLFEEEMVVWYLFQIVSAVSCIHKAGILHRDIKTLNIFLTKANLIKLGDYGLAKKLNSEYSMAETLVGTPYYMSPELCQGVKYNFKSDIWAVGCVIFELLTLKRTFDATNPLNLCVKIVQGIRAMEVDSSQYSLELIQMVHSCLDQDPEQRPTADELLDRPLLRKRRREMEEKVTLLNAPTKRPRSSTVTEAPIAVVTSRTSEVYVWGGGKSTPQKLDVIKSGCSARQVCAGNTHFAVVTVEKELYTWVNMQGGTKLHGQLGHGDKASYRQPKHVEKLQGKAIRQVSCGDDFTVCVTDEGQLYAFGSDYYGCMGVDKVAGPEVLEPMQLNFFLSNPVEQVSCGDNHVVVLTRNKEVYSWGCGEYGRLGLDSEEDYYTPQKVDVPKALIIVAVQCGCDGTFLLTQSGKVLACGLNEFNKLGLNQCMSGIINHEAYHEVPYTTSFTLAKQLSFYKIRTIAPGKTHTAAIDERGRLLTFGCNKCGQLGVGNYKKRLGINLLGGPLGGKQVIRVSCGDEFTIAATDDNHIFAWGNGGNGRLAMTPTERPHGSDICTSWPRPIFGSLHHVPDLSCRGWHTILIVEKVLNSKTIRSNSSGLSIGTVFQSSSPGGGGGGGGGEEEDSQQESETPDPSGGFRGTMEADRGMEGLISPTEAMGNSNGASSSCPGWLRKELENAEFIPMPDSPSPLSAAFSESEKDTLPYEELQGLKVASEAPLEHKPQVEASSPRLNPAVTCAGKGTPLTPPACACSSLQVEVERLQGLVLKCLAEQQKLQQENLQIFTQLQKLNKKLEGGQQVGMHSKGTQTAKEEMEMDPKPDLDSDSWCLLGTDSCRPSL

[6] = target: T2, BRSK2 (Homo sapiens, UniProt Q8IWQ3)
T2 sequence (Q8IWQ3 1-736): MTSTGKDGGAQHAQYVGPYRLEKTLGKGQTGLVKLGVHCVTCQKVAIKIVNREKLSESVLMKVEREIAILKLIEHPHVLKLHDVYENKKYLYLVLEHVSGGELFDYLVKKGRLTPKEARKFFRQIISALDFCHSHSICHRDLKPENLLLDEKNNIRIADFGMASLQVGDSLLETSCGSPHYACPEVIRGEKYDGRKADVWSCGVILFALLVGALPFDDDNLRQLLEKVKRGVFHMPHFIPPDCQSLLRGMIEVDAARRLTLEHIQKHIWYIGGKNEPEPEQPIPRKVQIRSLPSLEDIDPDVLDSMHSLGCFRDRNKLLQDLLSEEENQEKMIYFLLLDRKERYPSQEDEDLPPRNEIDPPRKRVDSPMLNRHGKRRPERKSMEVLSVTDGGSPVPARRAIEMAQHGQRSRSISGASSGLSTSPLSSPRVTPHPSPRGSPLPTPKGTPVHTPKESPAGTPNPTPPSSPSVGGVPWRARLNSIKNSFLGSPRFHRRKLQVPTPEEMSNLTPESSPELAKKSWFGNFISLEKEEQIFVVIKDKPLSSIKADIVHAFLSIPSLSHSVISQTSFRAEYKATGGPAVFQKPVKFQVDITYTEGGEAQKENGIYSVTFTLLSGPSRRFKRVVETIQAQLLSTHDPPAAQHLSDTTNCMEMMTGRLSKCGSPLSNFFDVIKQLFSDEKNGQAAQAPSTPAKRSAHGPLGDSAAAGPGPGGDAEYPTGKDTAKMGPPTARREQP

[7] = target: WNK4 (Homo sapiens, UniProt Q96J92)
[8] = read-out: Niraparib (MK-4827) / %Ctrl @ 10000nM
[9] = read-out: Olaparib / %Ctrl @ 10000nM
[10] = read-out: Rucaparib / %Ctrl @ 10000nM, binding competition, % of control
[11] = read-out: Talazoparib (BMN 673) / %Ctrl @ 10000nM

Chain of PIK3CA(E542K) (P42336 whole entry E542K): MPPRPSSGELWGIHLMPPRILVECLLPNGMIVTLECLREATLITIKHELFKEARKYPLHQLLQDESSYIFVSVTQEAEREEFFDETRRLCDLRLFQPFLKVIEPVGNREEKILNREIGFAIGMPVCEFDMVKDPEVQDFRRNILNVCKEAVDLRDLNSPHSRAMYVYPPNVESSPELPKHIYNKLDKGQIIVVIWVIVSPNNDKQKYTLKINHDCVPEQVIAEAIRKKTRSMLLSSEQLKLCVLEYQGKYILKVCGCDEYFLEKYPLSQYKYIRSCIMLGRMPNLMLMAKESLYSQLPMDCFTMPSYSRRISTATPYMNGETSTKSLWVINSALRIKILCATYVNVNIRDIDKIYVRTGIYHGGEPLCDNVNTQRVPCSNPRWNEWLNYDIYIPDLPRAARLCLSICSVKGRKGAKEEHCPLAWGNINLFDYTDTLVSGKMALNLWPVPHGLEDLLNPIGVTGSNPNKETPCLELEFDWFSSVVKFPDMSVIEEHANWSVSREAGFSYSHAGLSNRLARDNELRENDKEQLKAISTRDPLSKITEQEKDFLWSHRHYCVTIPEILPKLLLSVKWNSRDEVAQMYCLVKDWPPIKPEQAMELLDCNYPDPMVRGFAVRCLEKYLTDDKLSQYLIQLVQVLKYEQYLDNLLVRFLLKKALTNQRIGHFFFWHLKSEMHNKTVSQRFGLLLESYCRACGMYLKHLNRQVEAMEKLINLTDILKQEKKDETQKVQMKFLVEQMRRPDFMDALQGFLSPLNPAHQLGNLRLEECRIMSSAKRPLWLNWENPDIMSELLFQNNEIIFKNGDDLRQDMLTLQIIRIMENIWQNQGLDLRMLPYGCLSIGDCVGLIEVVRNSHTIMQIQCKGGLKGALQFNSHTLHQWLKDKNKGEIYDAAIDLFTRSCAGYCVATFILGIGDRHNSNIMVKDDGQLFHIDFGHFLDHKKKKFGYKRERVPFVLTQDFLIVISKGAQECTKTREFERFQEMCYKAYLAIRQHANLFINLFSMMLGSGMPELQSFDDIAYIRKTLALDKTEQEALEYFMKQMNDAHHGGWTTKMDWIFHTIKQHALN
Chain of MAP4K5 (Q9Y4K4 whole entry): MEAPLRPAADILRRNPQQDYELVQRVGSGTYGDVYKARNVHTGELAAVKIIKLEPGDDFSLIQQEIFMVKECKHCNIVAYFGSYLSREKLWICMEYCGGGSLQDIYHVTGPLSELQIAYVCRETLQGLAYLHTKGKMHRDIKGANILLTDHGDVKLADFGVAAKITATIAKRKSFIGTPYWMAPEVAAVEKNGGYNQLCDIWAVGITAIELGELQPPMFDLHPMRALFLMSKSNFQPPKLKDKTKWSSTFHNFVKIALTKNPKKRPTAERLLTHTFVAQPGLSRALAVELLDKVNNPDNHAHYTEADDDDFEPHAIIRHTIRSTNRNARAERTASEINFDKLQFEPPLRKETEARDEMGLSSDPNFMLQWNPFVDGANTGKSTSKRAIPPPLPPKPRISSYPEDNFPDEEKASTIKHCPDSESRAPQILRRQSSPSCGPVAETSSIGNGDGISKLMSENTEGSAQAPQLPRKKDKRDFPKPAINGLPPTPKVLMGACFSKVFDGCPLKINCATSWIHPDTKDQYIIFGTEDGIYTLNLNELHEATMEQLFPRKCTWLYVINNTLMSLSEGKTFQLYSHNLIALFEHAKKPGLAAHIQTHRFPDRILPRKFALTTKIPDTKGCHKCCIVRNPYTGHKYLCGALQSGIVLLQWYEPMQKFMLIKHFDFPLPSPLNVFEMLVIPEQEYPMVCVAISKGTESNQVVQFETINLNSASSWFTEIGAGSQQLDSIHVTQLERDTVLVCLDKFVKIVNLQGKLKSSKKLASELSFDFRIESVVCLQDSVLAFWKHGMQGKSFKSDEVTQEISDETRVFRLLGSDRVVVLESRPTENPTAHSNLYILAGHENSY
Chain of SRC (P12931 whole entry): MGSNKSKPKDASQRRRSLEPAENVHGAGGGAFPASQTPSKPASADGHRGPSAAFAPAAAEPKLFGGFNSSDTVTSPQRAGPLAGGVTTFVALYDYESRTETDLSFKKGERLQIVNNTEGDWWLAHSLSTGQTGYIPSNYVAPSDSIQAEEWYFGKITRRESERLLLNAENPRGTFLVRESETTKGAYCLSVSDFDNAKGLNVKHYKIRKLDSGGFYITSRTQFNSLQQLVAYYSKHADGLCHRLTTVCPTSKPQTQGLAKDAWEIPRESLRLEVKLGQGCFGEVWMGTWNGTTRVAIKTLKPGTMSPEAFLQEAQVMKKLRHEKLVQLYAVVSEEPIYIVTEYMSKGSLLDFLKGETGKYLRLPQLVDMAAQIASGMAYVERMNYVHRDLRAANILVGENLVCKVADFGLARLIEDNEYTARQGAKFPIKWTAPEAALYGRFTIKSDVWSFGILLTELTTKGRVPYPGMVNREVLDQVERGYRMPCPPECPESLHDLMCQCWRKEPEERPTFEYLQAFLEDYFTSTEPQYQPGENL
Chain of MKNK1 (Q9BUB5 whole entry): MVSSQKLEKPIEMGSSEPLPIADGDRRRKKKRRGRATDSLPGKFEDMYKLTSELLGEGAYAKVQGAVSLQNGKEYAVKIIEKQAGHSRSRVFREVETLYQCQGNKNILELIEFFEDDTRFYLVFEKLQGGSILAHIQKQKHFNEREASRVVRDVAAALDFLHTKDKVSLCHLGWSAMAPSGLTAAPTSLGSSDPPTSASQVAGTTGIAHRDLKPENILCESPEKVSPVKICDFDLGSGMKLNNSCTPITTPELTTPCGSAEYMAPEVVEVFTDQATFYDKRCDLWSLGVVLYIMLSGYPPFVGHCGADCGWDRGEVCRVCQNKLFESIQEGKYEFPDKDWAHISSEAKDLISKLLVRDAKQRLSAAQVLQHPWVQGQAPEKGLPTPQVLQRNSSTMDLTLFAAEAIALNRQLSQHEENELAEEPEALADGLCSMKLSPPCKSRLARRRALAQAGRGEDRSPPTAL
Chain of WNK4 (Q96J92 whole entry): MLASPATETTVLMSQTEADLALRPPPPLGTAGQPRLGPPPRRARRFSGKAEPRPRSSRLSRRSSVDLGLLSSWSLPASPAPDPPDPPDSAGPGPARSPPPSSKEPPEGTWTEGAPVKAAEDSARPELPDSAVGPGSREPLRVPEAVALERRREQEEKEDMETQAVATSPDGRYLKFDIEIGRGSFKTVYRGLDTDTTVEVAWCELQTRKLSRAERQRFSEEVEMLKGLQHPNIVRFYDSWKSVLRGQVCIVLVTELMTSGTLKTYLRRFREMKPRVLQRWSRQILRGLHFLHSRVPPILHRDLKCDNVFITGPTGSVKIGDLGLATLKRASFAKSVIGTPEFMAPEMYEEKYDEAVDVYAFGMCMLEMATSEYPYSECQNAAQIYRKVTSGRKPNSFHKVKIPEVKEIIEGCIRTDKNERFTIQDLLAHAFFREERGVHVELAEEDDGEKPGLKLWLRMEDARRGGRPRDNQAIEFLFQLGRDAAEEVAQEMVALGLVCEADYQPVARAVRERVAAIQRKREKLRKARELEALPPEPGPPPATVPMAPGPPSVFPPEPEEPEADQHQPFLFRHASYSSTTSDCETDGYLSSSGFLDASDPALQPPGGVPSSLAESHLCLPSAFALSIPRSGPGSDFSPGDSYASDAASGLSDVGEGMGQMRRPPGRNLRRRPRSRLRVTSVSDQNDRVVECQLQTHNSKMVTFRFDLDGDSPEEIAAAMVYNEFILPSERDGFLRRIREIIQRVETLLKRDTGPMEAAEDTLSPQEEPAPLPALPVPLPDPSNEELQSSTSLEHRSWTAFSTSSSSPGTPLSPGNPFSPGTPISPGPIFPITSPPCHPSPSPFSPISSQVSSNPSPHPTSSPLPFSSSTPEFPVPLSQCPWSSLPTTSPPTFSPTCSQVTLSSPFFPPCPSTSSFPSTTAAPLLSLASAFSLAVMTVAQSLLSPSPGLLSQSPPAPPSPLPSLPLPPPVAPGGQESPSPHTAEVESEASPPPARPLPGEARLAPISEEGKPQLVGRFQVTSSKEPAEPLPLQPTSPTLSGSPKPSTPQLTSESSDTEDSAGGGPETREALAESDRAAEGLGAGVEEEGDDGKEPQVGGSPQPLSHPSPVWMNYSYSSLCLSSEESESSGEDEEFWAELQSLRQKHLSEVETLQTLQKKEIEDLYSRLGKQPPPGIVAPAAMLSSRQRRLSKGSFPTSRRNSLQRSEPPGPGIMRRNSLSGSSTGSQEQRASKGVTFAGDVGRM

Question: What does the source list for NC(=O)c1cccc2cn(-c3ccc([C@@H]4CCCNC4)cc3)nc12 [Niraparib]?
Answer: percent of control binding at 10 µM [1, 8]: 100%; percent of control binding at 10 µM [2, 8]: 100%; percent of control binding at 10 µM [3, 8]: 94%; percent of control binding at 10 µM [4, 8]: 100%; percent of control binding at 10 µM [5, 8]: 100%; percent of control binding at 10 µM [6, 8]: 91%; percent of control binding at 10 µM [7, 8]: 100%

Question: What does the source list for O=C(c1cc(Cc2n[nH]c(=O)c3ccccc23)ccc1F)N1CCN(C(=O)C2CC2)CC1 [Olaparib]?
Answer: percent of control binding at 10 µM [1, 9]: 94%; percent of control binding at 10 µM [2, 9]: 82%; percent of control binding at 10 µM [3, 9]: 100%; percent of control binding at 10 µM [4, 9]: 96%; percent of control binding at 10 µM [5, 9]: 100%; percent of control binding at 10 µM [6, 9]: 95%; percent of control binding at 10 µM [7, 9]: 100%

Question: With CNCc1ccc(-c2[nH]c3cc(F)cc4c3c2CCNC4=O)cc1 [Rucaparib] as the molecule, how does the percent of control binding at 10 µM [1, 10] read?
Answer: The percent of control binding at 10 µM was 82%.

Question: What about the percent of control binding at 10 µM [2, 10] of the same molecule?
Answer: Its percent of control binding at 10 µM is 97%.

Question: And the percent of control binding at 10 µM [3, 10]?
Answer: The percent of control binding at 10 µM was 99%.

Question: And the percent of control binding at 10 µM [4, 10]?
Answer: Its percent of control binding at 10 µM is 98%.

Question: And the percent of control binding at 10 µM [5, 10]?
Answer: Its percent of control binding at 10 µM is 100%.

Question: What about the percent of control binding at 10 µM [6, 10] of the same molecule?
Answer: The percent of control binding at 10 µM was 76%.

Question: What about the percent of control binding at 10 µM [7, 10] of the same molecule?
Answer: The percent of control binding at 10 µM was 97%.

Question: With Cn1ncnc1[C@H]1c2n[nH]c(=O)c3cc(F)cc(c23)N[C@@H]1c1ccc(F)cc1 [Talazoparib] as the molecule, how does the percent of control binding at 10 µM [1, 11] read?
Answer: The percent of control binding at 10 µM was 100%.

Question: And the percent of control binding at 10 µM [2, 11]?
Answer: Its percent of control binding at 10 µM is 100%.

Question: What about the percent of control binding at 10 µM [3, 11] of the same molecule?
Answer: Its percent of control binding at 10 µM is 93%.

Question: What about the percent of control binding at 10 µM [4, 11] of the same molecule?
Answer: Its percent of control binding at 10 µM is 100%.

Question: And the percent of control binding at 10 µM [5, 11]?
Answer: The percent of control binding at 10 µM was 99%.

Question: What about the percent of control binding at 10 µM [6, 11] of the same molecule?
Answer: Its percent of control binding at 10 µM is 63%.

Question: And the percent of control binding at 10 µM [7, 11]?
Answer: Its percent of control binding at 10 µM is 100%.
